Data on four molecules can be found in patent publication US20080299123A1, “TREATMENT OF CHEMOTHERAPY- OR RADIOTHERAPY-RESISTANT TUMORS” (Deutsches Krebsforschungszentrum Stiftung des offentlichen …, priority 2006, published 2008).

“Also recorded” adds a separate entry of the source. Some results are limits rather than exact numbers.

One data set concerns HEK293-hL1wt cells. In words: Haptotactic cell migration on fibronectin, HEK293-hL1wt. The data set is classed as cell-based, human. Conditions: MEK inhibitor at 20 μM. Here is the method: (A) L1 processing and cleavage in transfected HEK293 cells. The cell lysates were analyzed by Western blot with pcyt-L1 recognizing the cytoplasmic portion of L1. The nomenclature of L1-cleavage fragments is according to a previous publication (Mechtersheimer et al, 2001). (B) ELISA analysis. Soluble L1 levels in the medium of HEK293-hL1wt or HEK293-hL1mutTS cells treated with or without PMA stimulation for 1 h at 37° C. was analyzed. Lysates from both cell lines were used as positive controls. (C) Stimulation of cell migration on fibronectin by recombinant L1-Fc. The fusion protein was added at the final concentration of 0.6 μg/ml. […] (E) Phosphorylation of ERK1/2, FAK, PAK 1 and Src was analyzed in HEK293, HEK293-hL1wt and HEK293-hL1mutTS cells grown in serum. […] Labelled proteins were detected by autoradiography.
(A) HEK293 cells or HEK293-hL1wt cells were transfected transiently with plasmids (10 μg DNA) encoding hL1mut, dominant-negative ADAM10 (ADAM10-DN) or empty pcDNA3 vector. […] 48 h after transfection, cells were analyzed for haptotactic cell migration on fibronectin. […] 48 h after transduction with hL1wt or hL1mutTS adenovirus or YFP-TM adenovirus for control, KS cells or the L1 positive ovarian carcinoma cells OVMz, SKOV3ip and MO68 were analyzed for haptotactic cell migration on fibronectin as described in the legend to FIG. 1. […]

The next data set concerns m130 cells. In words: Long-term cisplatin treatment of m130 cells. Type of data set: cell-based. Here is the method:
(A) Light microscopy of cisplatin treated and no-treated m130 cells. Note the more elongated morphology after treatment for 3 weeks. The bar represents 10 μm. (B) FACS analysis of cisplatin treated m130 cells with mAb L1-11A against human L1-CAM. The analysis was carried out as described in FIG. 1. (C) Western blot analysis of cell lysate from cisplatin treated on non-treated m130 cells. (D) FACS analysis of cisplatin treated SW707 colon carcinoma cells with mAb L1-11A against human L1-CAM.
We studied whether long-term cisplatin treatment of L1-negative m130 cells would augment L1 expression. M130 cells were treated cells with increasing amounts of cisplatin over a time period of 3 weeks (10 μM first week, 15 μM second week, 20 μM third week).

In data set [1] the test system is HEK293 cells. Description: Induction of apoptosis, Nicoletti staining, in HEK293 cells. Type of data set: cell-based, human. The note with it: L1-negative cells; cisplatin 17 μM. As to the method: (§1) Cells (1×10^5 cells per well) were cultured in duplicate in 6 well culture plates and, after washing once with PBS, incubated for the indicated timepoints with or without apoptotic stimuli in serum-free medium. Staurosporine (2 μM), C2-ceramide (40 μM) or cisplatin (17 μM) were used as apoptotic reagents. For hypoxia studies, cells were incubated for different time points under hypoxic conditions (1% O2) using a Reming Bioinstruments chamber and oxygen regulator (Reming Bioinstruments, Redfield, N.Y.).
(§2) For quantification of DNA fragmentation, supernatants were centrifuged at 200×g. The cell pellet was washed once in PBS (pH 7.4) and lysed in a hypotonic lysis buffer (0.1% sodium citrate, 0.1% Triton X-100, 50 μg/ml propidiumiodite) at 4° C. overnight. The nuclei were then analyzed for DNA content by flow cytometry. The staining of cells for flow cytometry with mAbs and PE-conjugated secondary antibodies has been described. Cells were analysed with a FACScan using Cellquest or FlowJo software from Becton Dickinson (Heidelberg, Germany).

Data set [2] deals with HEK293-hL1 cells. Description: Induction of apoptosis, Nicoletti staining, in HEK293-hL1 cells. Type of data set: cell-based, human. The note with it: L1 positive cells; cisplatin 17 μM. As to the method: as §1, §2
A further data set deals with OVMz. Conditions: L1 high expressing cell line OVMz; previous work [29]; read-out: IC50 for cisplatin; cited from earlier work.
In another data set the test system is m130. The note with it: L1 negative cell line m130; previous work [29]; read-out: IC50 for cisplatin; cited from earlier work.
Data set [3] relates to ERK and FAK phosphorylation. Description: Phosphorylation of ERK and FAK in L1-depleted OVMz cells. The data set is classed as cell-based. Here is the method:
(C) Phosphorylation of ERK1/2, FAK, and PAK 1 was analyzed in L1-siRNA depleted cell. (D and E) analysis of apoptosis by Nicoletti staining.
(§3) SDS-PAGE under reducing conditions and transfer of separated proteins to Immobilon membranes using semi-dry blotting was described before. After blocking with 5% skim milk in TBS, the blots were developed with the respective primary antibody followed by peroxidase conjugated secondary antibody and ECL detection. The isolation and characterization of soluble L1 from ascites fluid was described before. Briefly, the vesicle cleared ascites fluid from ovarian carcinoma patients was adsorbed to Sepharoselinked mAb L1-11A and bound L1 was eluted with 0.1 M Glycin/HCl buffer pH 2.8. Eluted fractions were neutralized and an aliquot of the samples was analyzed by SDS-PAGE. Cell pellets were lysed in lysis buffer (20 mM Tris/HCl pH 8.0 containing 1% Triton X-100, 150 mM NaCl, 1 mM PMSF), cleared by centrifugation and mixed with two fold-concentrated reducing SDS-sample buffer.
(§4) Transfection of siRNAs was described before. L1 (5′-AGGGAUGG-UGUCCACCUUCAAAUU-3′) siRNA (SEQ ID NO: 1) was synthesized by MWG-Biotech (Ebersberg, Germany). Cells were transfected with annealed siRNAs using Oligofectamine (Life Technologies) and analyzed after the indicated time points.

A further data set deals with OVMz cells. In words: Apoptosis by Nicoletti staining in siRNA transfected OVMz cells. The data set is classed as cell-based. Conditions: compared to control siRNA treated cells. As to the method:
as §1, §2, §4

Another data set concerns L1. In words: siRNA-mediated knockdown of L1 in OVMz cells (FACS, Western blot). Type of data set: cell-based, human. The note with it: 48 hours after transfection. Here is the method:
(A) OVMz cells were transfected with L1-specific siRNA or control siRNA. After 48 hrs, cells were stained with mAb L1-11A to L1 followed by PE-conjugated anti-mouse IgG antibody and subjected to FACS analysis. (B) Cell lysates were analyzed by Western blot analysis using antibodies to the L1 ectodomain (mAb L1-11A) or the cytoplasmic portion (pcytL1). The L1-32 fragment is the ADAM10-mediated ectodomain cleavage fragment.
as §2
(§5) SDS-PAGE under reducing conditions and transfer of separated proteins to Immobilon membranes using semi-dry blotting was described before. […] Eluted fractions were neutralized and an aliquot of the samples was analyzed by SDS-PAGE. […]
Transfection of siRNAs was described before. […] Cells were transfected with annealed siRNAs using Oligofectamine (Life Technologies) and analyzed after the indicated time points.

Data set [4] relates to HEK293 cells. In words: Soluble L1 rescue from staurosporine induced apoptosis, HEK293. The data set is classed as cell-based, human. Conditions: staurosporine 12 hours, purified soluble L1 10 μg/ml. As to the method: (§6) (A) HEK293 and HEK293-hL1 cells were treated with staurosporine for the indicated length of time in the presence or absence of purified soluble L1 (10 μg/ml). Cell survival was determined by Nicoletti staining. (B) Analysis of FAK phosphorylation in HEK293 cells after the addition of soluble L1.
as §1
(§7) For quantification of DNA fragmentation, supernatants were centrifuged at 200×g. […] The nuclei were then analyzed for DNA content by flow cytometry. […] Cells were analysed with a FACScan using Cellquest or FlowJo software from Becton Dickinson (Heidelberg, Germany).
as §5

Data set [5] concerns HEK293-hL1 cells. In words: Soluble L1 rescue from staurosporine induced apoptosis, HEK293-hL1. The data set is classed as cell-based, human. The note with it: staurosporine 12 hours, purified soluble L1 10 μg/ml. As to the method:
as §6, §1, §7, §5

A further data set has as its system FAK phosphorylation. In words: FAK phosphorylation in HEK293 cells after addition of soluble L1. The data set is classed as cell-based, human. Conditions: addition of soluble L1 to HEK293 cells. Here is the method: as §6, §3

In the case of `COc1cccc(-c2cc(=O)c3ccccc3o2)c1N` [PD59098], the cell migration result with HEK293-hL1wt cells is “Inhibition of cell migration was also observed”.
Take `N.N.[Cl][Pt][Cl]` [cisplatin, cis-Diammineplatinum(II) dichloride]: the “expression of L1” value in the data set with m130 cells (cisplatin 3 weeks (10, 15, 20 μM), FACS and Western Blot) is reported as “strongly enhanced”. Besides, in the data set on m130 cells (long-term cisplatin treatment, data not shown), the cell proliferation entry is “clearly decreased cell proliferation”. Besides, the “cells survived the treatment with cisplatin” value is on record as 40% with HEK293 cells [1] and “Approximately 70%” with HEK293-hL1 cells [2]. Also, the 50% inhibitory concentration (IC50) with OVMz was greater than 14 µM; in the data set on m130, 7 µM.
As for “L1-specific siRNA: L1 siRNA 5′-AGGGAUGG-UGUCCACCUUCAAAUU-3′ (SEQ ID NO: 1), synthesized by MWG-Biotech”, the “phosphorylation of ERK and FAK” value in data set [3] is “no significant reduction”. Moreover, in the data set on OVMz cells, the “sensitivity to apoptosis induced by cisplatin or staurosporine” value was “significantly enhanced”. For the same molecule, in the data set on L1, the “L1 expression at the cell surface” value is given as “downregulation of L1 expression at the cell surface”.

B1: soluble L1: soluble L1 ectodomain isolated from ascites fluid of ovarian carcinoma patients (protein, UniProt P32004 20-1120, looked up)
extracellular domain: IQIPEEYEGHHVMEPPVITEQSPRRLVVFPTDDISLKCEASGKPEVQFRWTRDGVHFKPKEELGVTVYQSPHSGSFTITGNNSNFAQRFQGIYRCFASNKLGTAMSHEIRLMAEGAPKWPKETVKPVEVEEGESVVLPCNPPPSAEPLRIYWMNSKILHIKQDERVTMGQNGNLYFANVLTSDNHSDYICHAHFPGTRTIIQKEPIDLRVKATNSMIDRKPRLLFPTNSSSHLVALQGQPLVLECIAEGFPTPTIKWLRPSGPMPADRVTYQNHNKTLQLLKVGEEDDGEYRCLAENSLGSARHAYYVTVEAAPYWLHKPQSHLYGPGETARLDCQVQGRPQPEVTWRINGIPVEELAKDQKYRIQRGALILSNVQPSDTMVTQCEARNRHGLLLANAYIYVVQLPAKILTADNQTYMAVQGSTAYLLCKAFGAPVPSVQWLDEDGTTVLQDERFFPYANGTLGIRDLQANDTGRYFCLAANDQNNVTIMANLKVKDATQITQGPRSTIEKKGSRVTFTCQASFDPSLQPSITWRGDGRDLQELGDSDKYFIEDGRLVIHSLDYSDQGNYSCVASTELDVVESRAQLLVVGSPGPVPRLVLSDLHLLTQSQVRVSWSPAEDHNAPIEKYDIEFEDKEMAPEKWYSLGKVPGNQTSTTLKLSPYVHYTFRVTAINKYGPGEPSPVSETVVTPEAAPEKNPVDVKGEGNETTNMVITWKPLRWMDWNAPQVQYRVQWRPQGTRGPWQEQIVSDPFLVVSNTSTFVPYEIKVQAVNSQGKGPEPQVTIGYSGEDYPQAIPELEGIEILNSSAVLVKWRPVDLAQVKGHLRGYNVTYWREGSQRKHSKRHIHKDHVVVPANTTSVILSGLRPYSSYHLEVQAFNGRGSGPASEFTFSTPEGVPGHPEALHLECQSNTSLLLRWQPPLSHNGVLTGYVLSYHPLDEGGKGQLSFNLRDPELRTHNLTDLSPHLRYRFQLQATTKEGPGEAIVREGGTMALSGISDFGNISATAGENYSVVSWVPKEGQCNFRFHILFKALGEEKGGASLSPQYVSYNQSSYTQWDLQPDTDYEIHLFKERMFRHQMAVKTNGTGRVRLPPAGFATE
modifications: extracellular domain
notes: soluble L1 ectodomain isolated from ascites fluid of ovarian carcinoma patients
On to B1, for which the cell survival entry in the data set on HEK293 cells [4] is “enhanced survival of both cell lines to a similar degree; also recorded: only partially rescue HEK293 cells from apoptosis”; in the data set on HEK293-hL1 cells [5], “enhanced survival of both cell lines to a similar degree”. Besides, the FAK phosphorylation entry in the data set on FAK phosphorylation is listed as “enhanced FAK phosphorylation”.

The IC50 is the concentration at which inhibition is half-maximal.
